Measured values: ChEMBL document CHEMBL4346710, “Discovery of 7H-pyrrolo[2,3-d]pyrimidine derivatives as selective covalent irreversible inhibitors of interleukin-2-inducible T-cell kinase (Itk)” (Eur J Med Chem, 2019)
Activity calls are given as the source filed them. No cut-off for these calls is given here.

Columns and labels:
[1] = target: Calcium/calmodulin-dependent protein kinase type IV (Homo sapiens) (UniProt Q16566); test: Inhibition of recombinant human full length GST-tagged CAMK4 expressed in Escherichia coli expression system assessed as enzyme residual activity at 0.4 uM using fluorophore-labeled serine/threonine-13 peptide as substrate incubated for 60 mins by Z'-LYTE assay relative to control
CCRF-CEM = test: Induction of apoptosis in human CCRF-CEM cells assessed as downregulation of caspase3 at 1 to 5 uM incubated for 24 hrs by Western blot analysis; assay type: functional, cell-based
Jurkat [2] = test: Growth inhibition of human Jurkat cells incubated for 72 hrs by CellTiter-Glo luminescent cell viability assay; assay type: functional
TAK1/TAB1 = TAK1/TAB1 (Homo sapiens, UniProt O43318); test: Inhibition of tracer 222 binding to recombinant full-length human His-tagged MAP3K7/MAP3K7IP1 (437 to 504 residues) expressed in baculovirus expression system by Lanthascreen assay
[3] = target: Tyrosine-protein kinase JAK3 (Homo sapiens) (UniProt P52333); test: (§1) Inhibition of recombinant human GST-tagged JAK3 catalytic domain (781 to 1124 residues) expressed in baculovirus expression system assessed as enzyme residual activity at 0.4 uM using fluorophore-labeled tyrosine-6 peptide as substrate incubated for 60 mins by Z'-LYTE assay relative to control
[4] = target: Ephrin type-A receptor 2 (Homo sapiens) (UniProt P29317); test: Inhibition of recombinant human GST-tagged EPHA2 cytoplasmic domain (560 to 976 residues) expressed in baculovirus expression system assessed as enzyme residual activity at 0.4 uM using tyrosine-01 peptide as substrate incubated for 60 mins by Z'-Lyte assay relative to control
Ephrin type-A receptor 2 (Homo sapiens), sequence (P29317 whole entry, the tested form may be a part): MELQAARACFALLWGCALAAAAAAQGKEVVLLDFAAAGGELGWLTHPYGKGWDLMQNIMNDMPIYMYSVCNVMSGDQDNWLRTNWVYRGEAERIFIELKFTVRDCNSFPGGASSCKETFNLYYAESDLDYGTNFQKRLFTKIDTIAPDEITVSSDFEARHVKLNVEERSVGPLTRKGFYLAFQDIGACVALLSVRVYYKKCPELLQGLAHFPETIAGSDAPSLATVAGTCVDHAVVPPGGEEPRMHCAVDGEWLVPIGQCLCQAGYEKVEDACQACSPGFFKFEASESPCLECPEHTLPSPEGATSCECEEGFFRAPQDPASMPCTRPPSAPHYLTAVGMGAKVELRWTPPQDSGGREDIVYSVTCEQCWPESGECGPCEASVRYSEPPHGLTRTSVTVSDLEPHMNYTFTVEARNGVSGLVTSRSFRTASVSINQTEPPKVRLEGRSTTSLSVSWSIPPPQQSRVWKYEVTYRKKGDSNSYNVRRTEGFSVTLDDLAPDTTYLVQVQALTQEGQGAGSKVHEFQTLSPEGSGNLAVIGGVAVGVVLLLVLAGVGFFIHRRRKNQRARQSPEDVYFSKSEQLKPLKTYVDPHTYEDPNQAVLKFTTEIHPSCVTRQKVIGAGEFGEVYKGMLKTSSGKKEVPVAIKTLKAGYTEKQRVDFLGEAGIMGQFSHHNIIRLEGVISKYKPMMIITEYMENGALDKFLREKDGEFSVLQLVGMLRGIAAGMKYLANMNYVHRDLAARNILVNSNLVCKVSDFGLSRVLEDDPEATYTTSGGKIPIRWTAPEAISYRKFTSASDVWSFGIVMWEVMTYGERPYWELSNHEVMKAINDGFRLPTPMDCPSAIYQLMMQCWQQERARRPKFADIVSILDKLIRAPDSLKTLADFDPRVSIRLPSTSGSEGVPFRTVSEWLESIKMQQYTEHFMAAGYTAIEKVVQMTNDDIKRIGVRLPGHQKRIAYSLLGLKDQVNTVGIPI

[5] = target: Epidermal growth factor receptor (Homo sapiens, UniProt P00533); test: Inhibition of human recombinant GST-tagged EGFR cytoplasmic domain (668 to 1210 residues) expressed in baculovirus expression system assessed as enzyme residual activity at 0.4 uM using fluorophore-labeled tyrosine-4 peptide as substrate by Z'-Lyte assay relative to control
Epidermal growth factor receptor, sequence (P00533 whole entry, the tested form may be a part): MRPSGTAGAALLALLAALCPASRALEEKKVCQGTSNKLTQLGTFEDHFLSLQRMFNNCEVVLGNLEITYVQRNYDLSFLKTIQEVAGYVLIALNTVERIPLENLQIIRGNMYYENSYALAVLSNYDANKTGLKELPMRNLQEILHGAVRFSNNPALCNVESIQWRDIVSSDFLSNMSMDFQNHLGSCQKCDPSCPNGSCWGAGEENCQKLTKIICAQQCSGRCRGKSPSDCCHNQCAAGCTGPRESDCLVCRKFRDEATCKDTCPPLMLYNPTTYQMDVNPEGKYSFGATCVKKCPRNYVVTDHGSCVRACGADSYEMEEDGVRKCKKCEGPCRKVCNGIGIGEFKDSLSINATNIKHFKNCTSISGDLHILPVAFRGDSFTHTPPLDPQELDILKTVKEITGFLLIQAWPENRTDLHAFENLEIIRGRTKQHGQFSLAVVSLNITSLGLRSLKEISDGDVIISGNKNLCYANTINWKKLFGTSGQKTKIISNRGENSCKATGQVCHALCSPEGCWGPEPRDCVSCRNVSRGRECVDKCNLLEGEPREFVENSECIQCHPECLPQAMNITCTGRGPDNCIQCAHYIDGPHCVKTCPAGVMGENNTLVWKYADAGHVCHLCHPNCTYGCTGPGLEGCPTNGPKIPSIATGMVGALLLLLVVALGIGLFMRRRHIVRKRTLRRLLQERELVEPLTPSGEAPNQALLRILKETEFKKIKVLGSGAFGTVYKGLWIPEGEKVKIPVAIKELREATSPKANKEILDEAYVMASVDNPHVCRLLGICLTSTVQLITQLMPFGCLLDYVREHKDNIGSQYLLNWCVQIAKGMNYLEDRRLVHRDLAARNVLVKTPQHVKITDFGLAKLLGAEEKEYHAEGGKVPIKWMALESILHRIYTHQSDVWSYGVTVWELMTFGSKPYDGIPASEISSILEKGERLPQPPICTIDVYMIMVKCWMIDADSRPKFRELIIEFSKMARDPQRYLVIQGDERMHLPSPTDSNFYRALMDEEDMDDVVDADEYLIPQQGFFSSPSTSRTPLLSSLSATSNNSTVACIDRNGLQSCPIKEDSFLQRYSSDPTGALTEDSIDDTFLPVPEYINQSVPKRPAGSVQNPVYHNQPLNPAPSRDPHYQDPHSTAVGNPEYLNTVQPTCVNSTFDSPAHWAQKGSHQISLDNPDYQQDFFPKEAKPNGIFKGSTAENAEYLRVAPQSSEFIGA

[6] = target: Tyrosine-protein kinase Fyn (Homo sapiens) (UniProt P06241); test: Inhibition of recombinant full length C-terminal His-tagged human FYN cytoplasmic domain expressed in baculovirus expression system assessed as enzyme residual activity at 0.4 uM using fluorophore-labeled tyrosine-2 peptide as substrate by Z'-Lyte assay relative to control
Tyrosine-protein kinase Fyn (Homo sapiens), sequence (P06241 2-537 limits assumed): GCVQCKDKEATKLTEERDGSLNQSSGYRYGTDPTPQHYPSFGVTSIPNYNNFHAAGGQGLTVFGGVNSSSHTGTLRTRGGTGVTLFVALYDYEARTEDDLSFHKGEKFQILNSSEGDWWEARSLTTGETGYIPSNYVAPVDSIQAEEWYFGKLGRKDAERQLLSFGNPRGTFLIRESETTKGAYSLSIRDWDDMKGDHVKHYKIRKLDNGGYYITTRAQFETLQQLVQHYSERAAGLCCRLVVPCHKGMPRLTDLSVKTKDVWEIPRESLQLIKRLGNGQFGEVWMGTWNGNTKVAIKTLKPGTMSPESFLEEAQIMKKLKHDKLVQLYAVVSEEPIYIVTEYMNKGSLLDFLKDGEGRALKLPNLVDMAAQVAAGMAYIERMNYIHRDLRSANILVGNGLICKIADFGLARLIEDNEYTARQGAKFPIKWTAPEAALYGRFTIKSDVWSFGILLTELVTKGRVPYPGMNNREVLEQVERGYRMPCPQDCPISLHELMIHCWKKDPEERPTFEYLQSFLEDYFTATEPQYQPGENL

[7] = target: Tyrosine-protein kinase ABL1 (Homo sapiens) (UniProt P00519); test: Inhibition of recombinant full length human His-tagged ABL1 cytoplasmic domain expressed in baculovirus expression system assessed as enzyme residual activity at 0.4 uM using fluorophore-labeled tyrosine-2 peptide as substrate incubated for 60 mins by Z'-LYTE assay relative to control
[8] = target: Casein kinase I isoform alpha (Homo sapiens) (UniProt P48729); test: Inhibition of recombinant full length human GST-tagged CSNK1A1 expressed in baculovirus expression system assessed as enzyme residual activity at 0.4 uM using fluorophore-labeled serine/threonine-11 peptide as substrate incubated for 60 mins by Z'-LYTE assay relative to control
Jurkat [9] = test: Induction of apoptosis in human Jurkat cells assessed as downregulation of PARP at 1 to 20 uM incubated for 24 hrs by Western blot analysis; assay type: functional, cell-based
[10] = target: Insulin-like growth factor 1 receptor (Homo sapiens) (UniProt P08069); test: (§2) Inhibition of recombinant human His-tagged IGF1R cytoplasmic domain (960 to 1397 residues) expressed in baculovirus expression system assessed as enzyme residual activity at 0.4 uM using fluorophore-labeled tyrosine-1 peptide as substrate incubated for 60 mins by Z'-LYTE assay relative to control
[11] = target: Serine/threonine-protein kinase Nek1 (Homo sapiens) (UniProt Q96PY6); test: as §1, with “NEK1” for “JAK3”, “(1” for “(781”, “505 amino acids)” for “1124 residues)”, “serine/threonine-07” for “tyrosine-6”
Serine/threonine-protein kinase Nek1 (Homo sapiens), sequence (Q96PY6 whole entry): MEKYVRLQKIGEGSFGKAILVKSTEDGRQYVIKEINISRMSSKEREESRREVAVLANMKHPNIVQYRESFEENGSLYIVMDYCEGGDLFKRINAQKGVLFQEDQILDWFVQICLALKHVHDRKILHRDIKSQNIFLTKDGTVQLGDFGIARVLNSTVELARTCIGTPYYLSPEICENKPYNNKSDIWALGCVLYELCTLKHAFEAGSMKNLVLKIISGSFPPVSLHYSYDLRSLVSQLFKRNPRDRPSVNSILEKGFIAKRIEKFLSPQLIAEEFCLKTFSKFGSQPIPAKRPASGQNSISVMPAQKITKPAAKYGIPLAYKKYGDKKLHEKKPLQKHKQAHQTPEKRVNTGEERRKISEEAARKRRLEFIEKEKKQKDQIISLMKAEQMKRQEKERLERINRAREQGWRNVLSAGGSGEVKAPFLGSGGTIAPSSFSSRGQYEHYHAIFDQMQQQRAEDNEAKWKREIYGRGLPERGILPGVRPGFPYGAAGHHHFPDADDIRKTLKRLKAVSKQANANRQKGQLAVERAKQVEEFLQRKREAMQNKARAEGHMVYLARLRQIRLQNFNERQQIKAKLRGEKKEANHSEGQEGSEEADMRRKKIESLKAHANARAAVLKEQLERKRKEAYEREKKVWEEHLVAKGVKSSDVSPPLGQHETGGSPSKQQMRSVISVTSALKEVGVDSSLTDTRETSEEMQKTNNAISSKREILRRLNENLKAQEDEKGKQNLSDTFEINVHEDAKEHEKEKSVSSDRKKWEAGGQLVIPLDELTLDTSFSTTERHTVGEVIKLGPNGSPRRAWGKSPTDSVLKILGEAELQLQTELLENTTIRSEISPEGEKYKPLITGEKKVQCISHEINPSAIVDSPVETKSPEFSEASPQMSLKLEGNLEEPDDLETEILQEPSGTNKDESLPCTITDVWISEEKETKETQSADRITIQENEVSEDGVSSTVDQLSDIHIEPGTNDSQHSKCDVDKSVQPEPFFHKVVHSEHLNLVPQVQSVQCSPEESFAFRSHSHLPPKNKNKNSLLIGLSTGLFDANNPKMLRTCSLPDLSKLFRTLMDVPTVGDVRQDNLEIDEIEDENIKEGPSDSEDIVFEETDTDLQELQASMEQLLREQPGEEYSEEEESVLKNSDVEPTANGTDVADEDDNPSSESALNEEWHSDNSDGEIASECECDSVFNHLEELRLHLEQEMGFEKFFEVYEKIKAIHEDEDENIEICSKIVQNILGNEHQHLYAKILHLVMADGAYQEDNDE

[12] = target: Interleukin-1 receptor-associated kinase 4 (Homo sapiens) (UniProt Q9NWZ3); test: Inhibition of recombinant human His-tagged IRAK4 expressed in baculovirus expression system assessed as enzyme residual activity at 0.4 uM using fluorophore-labeled serine/threonine-7 peptide as substrate incubated for 60 mins by Z'-LYTE assay relative to control
Homo sapiens = species: Homo sapiens; test: Selectivity ratio of IC50 for recombinant human N-terminal His6-tagged JAK3 (781 to end residues) expressed in baculovirus infected Sf21 cells to IC50 for recombinant human N-terminal His6-tagged ITK (352 to 617 residues) expressed in baculovirus infected Sf21 insect cells
MOLT-4 = test: Induction of apoptosis in human MOLT4 cells assessed as downregulation of PARP at 1 to 20 uM incubated for 24 hrs by Western blot analysis; assay type: functional, cell-based
[13] = target: Tyrosine-protein kinase ZAP-70 (Homo sapiens) (UniProt P43403); test: Inhibition of recombinant full length human His-tagged ZAP70 cytoplasmic domain expressed in baculovirus expression system assessed as enzyme residual activity at 0.4 uM using fluorophore-labeled tyrosine-07 peptide as substrate incubated for 60 mins by Z'-LYTE assay relative to control
[14] = target: Mitogen-activated protein kinase 3 (Homo sapiens) (UniProt P27361); test: Inhibition of recombinant full length human GST-tagged ERK1 expressed in Escherichia coli assessed as enzyme residual activity at 0.4 uM using fluorophore-labeled serine/threonine-3 peptide as substrate incubated for 60 mins by Z'-LYTE assay relative to control
[15] = target: Tyrosine-protein kinase Lck (Homo sapiens, UniProt P06239); test: Inhibition of recombinant full length human C-terminal His-tagged LCK cytoplasmic domain expressed in baculovirus expression system using fluorophore-labeled tyrosine-2 peptide as substrate incubated for 60 mins by Z'-LYTE assay
[16] = target: Tyrosine-protein kinase BTK (Homo sapiens, UniProt Q06187); test: Inhibition of recombinant human full-length N-terminal His6-tagged BTK expressed in baculovirus infected Sf21 insect cells using STK substrate by HTRF assay
Tyrosine-protein kinase BTK, sequence (Q06187 whole entry): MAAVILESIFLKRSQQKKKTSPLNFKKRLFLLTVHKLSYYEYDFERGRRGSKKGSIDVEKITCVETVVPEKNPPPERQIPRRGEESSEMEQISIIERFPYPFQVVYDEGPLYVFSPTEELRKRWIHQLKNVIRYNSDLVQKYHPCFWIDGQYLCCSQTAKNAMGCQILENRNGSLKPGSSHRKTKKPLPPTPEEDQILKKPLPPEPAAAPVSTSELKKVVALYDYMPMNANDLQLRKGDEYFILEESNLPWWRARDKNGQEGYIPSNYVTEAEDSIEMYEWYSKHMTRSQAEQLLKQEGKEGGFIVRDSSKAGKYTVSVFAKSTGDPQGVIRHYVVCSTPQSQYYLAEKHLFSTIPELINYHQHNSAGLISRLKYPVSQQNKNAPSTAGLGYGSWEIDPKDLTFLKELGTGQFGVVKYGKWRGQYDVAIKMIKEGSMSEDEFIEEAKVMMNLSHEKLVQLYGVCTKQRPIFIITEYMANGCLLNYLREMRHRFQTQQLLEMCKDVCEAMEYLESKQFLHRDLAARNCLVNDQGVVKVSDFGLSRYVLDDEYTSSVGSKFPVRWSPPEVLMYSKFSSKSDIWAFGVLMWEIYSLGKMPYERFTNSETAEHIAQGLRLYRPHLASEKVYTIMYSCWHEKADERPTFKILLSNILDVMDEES

[17] = target: Hepatocyte growth factor receptor (Homo sapiens) (UniProt P08581); test: as §2, with “human N-terminal” for “human”, “cMET” for “IGF1R”, “(956” for “(960”, “1390” for “1397”, “tyrosine 6” for “tyrosine-1”
[18] = target: Aurora kinase B (Homo sapiens) (UniProt Q96GD4); test: Inhibition of recombinant full length human His-tagged Aurora B expressed in baculovirus expression system assessed as enzyme residual activity at 0.4 uM using fluorophore-labeled serine/threonine-1 peptide as substrate incubated for 60 mins by Z'-LYTE assay relative to control
[19] = target: Receptor-type tyrosine-protein kinase FLT3 (Homo sapiens) (UniProt P36888); test: Inhibition of recombinant human His-tagged FLT3 cytoplasmic domain (564 to 958 residues) expressed in baculovirus expression system assessed as enzyme residual activity at 0.4 uM using fluorophore-labeled tyrosine-2 peptide as substrate incubated for 60 mins by Z'-LYTE assay relative to control
[20] = target: Mitogen-activated protein kinase 8 (Homo sapiens) (UniProt P45983); test: Inhibition of tracer 236 binding to recombinant full length human His-tagged MAPK8 expressed in baculovirus expression system assessed as enzyme residual activity at 0.4 uM incubated for 60 mins by Lanthascreen assay relative to control
Mitogen-activated protein kinase 8 (Homo sapiens), sequence (P45983 whole entry): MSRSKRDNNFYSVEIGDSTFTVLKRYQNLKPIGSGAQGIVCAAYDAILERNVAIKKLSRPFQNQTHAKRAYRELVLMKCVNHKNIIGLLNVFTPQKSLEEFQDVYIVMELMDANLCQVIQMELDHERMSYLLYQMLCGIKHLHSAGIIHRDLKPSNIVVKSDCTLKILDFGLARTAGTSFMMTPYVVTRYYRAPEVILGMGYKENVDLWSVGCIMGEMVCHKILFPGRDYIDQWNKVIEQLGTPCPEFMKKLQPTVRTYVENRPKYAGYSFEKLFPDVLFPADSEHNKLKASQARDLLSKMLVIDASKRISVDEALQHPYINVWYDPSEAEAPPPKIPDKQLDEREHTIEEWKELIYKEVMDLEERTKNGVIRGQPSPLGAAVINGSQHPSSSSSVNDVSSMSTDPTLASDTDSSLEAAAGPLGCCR

## C=CC(=O)N1CCC(Oc2nc(Nc3ccc(N4CCOCC4)cc3)nc3[nH]cc(-c4cncc(NC)n4)c23)CC1
[1]
  Activity: 107%
CCRF-CEM
  Activity: Active
Jurkat [2]
  GI50: 0.184 µM
TAK1/TAB1
  IC50: 0.054 µM
[3]
  Activity: 16.3%
[4]
  Activity: 95%
[5]
  Activity: 62%
[6]
  Activity: 21%
[7]
  Activity: 11.7%
[8]
  Activity: 92.7%
Jurkat [9]
  Activity: Active
[10]
  Activity: 84%
[11]
  Activity: 89%
[12]
  Activity: 19.3%
Homo sapiens
  Ratio IC50: 33
MOLT-4
  Activity: Active
[13]
  Activity: 95%
[14]
  Activity: 98.7%
[15]
  IC50: 0.074 µM
[16]
  IC50: 0.996 µM
[17]
  Activity: 79%
[18]
  Activity: 36%
[19]
  Activity: 2.3%
[20]
  Activity: 25%
